“Also recorded” adds a separate entry of the source. Like-named read-outs stand apart in the source and are kept apart here.
What was measured:
[1] = tested on: cyclin D1; assay: Western blot of Cyclin D1, Example 6B; assay type: cell-based; settings: 24 h, compared to control (DMSO)
Description: Cells were plated at a density of 3×10^5 cells/well for 24 hrs. Representative compounds or DMSO alone was then added to the wells for 24 h at 250 nM (note: Compound F was administered at a concentration of 2 μM). Cells were trypsinised, pelleted, washed ×3 in PBS, and lysed using a 2% SDS lysis solution (Sigma—05030).
Western blot analysis was then carried out to look at Cyclin D1 (Abeam—ab134175), PRK8 (Sigma—P6248), Rb (Abeam—[…]) and GAPDH (Sigma—G9545) levels.

[2] = tested on: TOV-21G; assay: Cell proliferation assay; assay type: cell-based; settings: Homo sapiens
Description: (§1) Measurement of the inhibitive effect of compounds on cancer cell proliferation was performed. The assays were performed under the following conditions: Cells are harvested at a concentration of 4×10^4 cells/ml in media. Volumes of 100 μL/well of these cell suspensions were added to a 96 well plate using a multichannel pipette. Plates were gently agitated to ensure an even dispersion of cells over a given plate. Cells were then incubated at 37° C., 5% CO2 overnight. Following this, 100 μL of compound at varying concentrations was added to wells in triplicate. Control wells are those with 100 μL media containing 0.33% DMSO added to cell suspension (this is the equivalent volume of DMSO found in the highest concentration of drug). Plates were then gently agitated, as above, and incubated at 37° C., 5% CO2 for 72 hrs (control wells have reached 80-90% confluency). Assessment of cell proliferation in the presence of Compounds C and F was determined by the acid phosphatase assay.
(§2) Following the incubation period of 72 hrs, media was removed from the plates. Each well on the plate was washed twice with 100 μL PBS. This was then removed and 100 μL of freshly prepared phosphatase substrate (10 mM p-nitrophenol phosphate in 0.1M sodium acetate, 0.1% triton X-100, pH 5.5) was added to each well. The plates were then incubated in the dark at 37° C. for 2 hours. Color development was monitored during this time. The enzymatic reaction was stopped by the addition of 50 μL of 1N NaOH. The plate was read in a dual beam plate reader at 405 nm with a reference wavelength of 620 nm. The absorbance reading of the latter is subtracted from the former, and the effect of the drug on cell proliferation was then measured as a percentage against the control cells (DMSO), which is taken as 0% inhibition.

[3] = tested on: A2780; assay: Cell proliferation assay; assay type: cell-based; settings: Homo sapiens; for IC50: Ovarian A2780
Description: as §1, §2

[4] = tested on: HCT 116; assay: Cell proliferation assay; assay type: cell-based; settings: Homo sapiens
Description: as §1, §2

[5] = tested on: TOV-112D; assay: Cell proliferation assay; assay type: cell-based; settings: Homo sapiens
Description: as §1, §2

[6] = tested on: Jeko-1; assay: Cell proliferation assay; assay type: cell-based; settings: Homo sapiens; for IC50: Mantle Cell Jeko-1, overexpression of Cyclin D
Description: as §1, §2

[7] = tested on: OAW42; assay: Cell proliferation assay; assay type: cell-based; settings: Homo sapiens, OAW-42; for IC50: Ovarian OAW42
Description: as §1, §2

[8] = tested on: A549; assay: Cell proliferation assay; assay type: cell-based; settings: Homo sapiens
Description: as §1, §2

[9] = tested on: HCT-116 xenograft; assay: Subcutaneous HCT-116 xenograft model, tumor volume; assay type: in vivo, nude mice; settings: vs control
Description: The efficacy of Compound 42, Compound F, and Compound Q3 were evaluated in the treatment of subcutaneous HCT-116 xenograft model in nude mice.
Cell Culture: HCT-116 tumor cell lines were maintained in vitro as a monolayer culture in DMEM medium supplemented with 10% fetal bovine serum at 37° C. in an atmosphere of 5% CO2 in air. The tumor cells were routinely subcultured twice weekly by trypsin-EDTA treatment (0.05% Trypsin-EDTA) and 1:4 split: The cells in an exponential growth phase were harvested and counted for tumor inoculation.
Tumor Inoculation: Each, mouse was inoculated subcutaneously at the flank region with HCT-1.16 cells (1.0×106) in 0.1 ml of 1×PBS mixed with Matrigel (1:1) for tumor development. The day Xenotransplantation was performed is denoted as day 0.
Thirty (30) animals with approx 100-150 mm^3 tumors were selected for HCT-116 follow up experiment and randomly placed Into Groups 1, 2, […], 4, 5, and 6 as shown in Table 8.
Group Assignment: Before grouping and treatment, all animals were weighed and fee tumor volumes were confirmed (100-150 mm^3) using electronic caliper. Since the tumor volume can affect fee effectiveness of any given treatment mice into groups using randomized block design as following: First the experimental animals were divided into homogeneous blocks based on their tumor volume. Secondly, within each block, randomization of experimental animals to different groups By using randomized block design to assign experimental animals, we ensure that each animal has the same probability of being assigned to any given treatment groups and therefore systematic error is minimized.
Treatments were initiated when turner volume reached 100-150 mm^3. Treatments started on Day 5. Test compounds were administered intraperitoneally (II′) in 10 mg/mL solution comprising 10% N,N-dimethyl acetamide, 15% macrogol 15 hydroxy stearate, polyethylene glycol-15-hydroxystearate, and 75% aqueous hydroxypropyl-beta-cyclodextrin.
Observation and data collection: After tumor cells inoculation, the animals were checked daily for morbidity and mortality. At the time of routine monitoring, the animals were checked for any adverse effects of tumor growth and treatments on normal behavior such as mobility, visual estimation of food and water consumption, body weight gain/loss, eye/hair matting and any other abnormal effects, Death and observed clinical signs were recorded, per […] IACUC. Tumor volumes were measured every 3-4 days in two dimensions using an electronic caliper, sad the volume data are expressed in, mm3 using the formula: V=0.5 a×b^2 where a and b are fee long and short diameters of the tumor, respectively. Dosing and tumor volume measurement procedures were conducted in a Laminar Flow Cabinet according to Altogen Labs IACUC regulations.
Statistics: Summary statistics, the mean and the standard error of the mean (SEM), are provided for the tumor volume of each group at each time point. Statistical analysis of difference in tumor volume among the groups and the analysis of drug interaction were conducted on the data obtained after the final dose.

[10] = Ovarian TOV21G, read-out: Proliferation IC50
[11] = CRC HCT-116, loss of p16 (mutant p53), read-out: Proliferation IC50
[12] = Ovarian TOV112D, loss of p16 (mutant p53), read-out: Proliferation IC50
[13] = Groups 2-6 of Table 8 (Compound 42 1 and 5, Q3 5 and 15, F 25 mg/kg), IP daily for 20 days, 28 days

With `Cc1ccccc1C(=O)Nc1nc(NC(=O)c2ccccc2C)n(-c2ccc(OC(F)(F)F)cc2)n1` [Compound 42, N,N′-(1-(4-(trifluoromethoxy)phenyl)-1H-1,2,4-triazole-3,5-diyl)bis(2-methylbenzamide)] the “Cyclin D1 expression” value ([1]; HCT-116, 250 nM) was “reduction of Cyclin D1 expression”, the “Cyclin D1 expression” value ([1]; TOV-112, 250 nM) was “reduction of Cyclin D1 expression” and the IC50 [2, 10] was 109 nM. For the same molecule, the EC50 ([2]; Table 7a, Ovarian (TOV21G)) was 74 nM, the IC50 [3] was 84 nM and the EC50 ([3]; Table 7a, Ovarian (A2780)) was 58 nM. The IC50 [4, 11] was 87 nM, the EC50 ([4]; Table 7a, Colon (HCT-116), read-out: EC50) was 87 nM and the IC50 [5, 12] was 103 nM. It also gave an EC50 ([5]; Table 7a, Ovarian (TOV112D), read-out: EC50) of 98 nM, an IC50 [6] of 154 nM and an EC50 ([6]; Table 7a, Mantle Cell (Jeko-1)) of 154 nM. For the same molecule, the IC50 [7] was 166 nM, the EC50 ([7]; Table 7a, Ovarian (OAW42)) was 166 nM and the EC50 ([8]; Table 7a, Lung (A549)) was 72 nM. For the same molecule, the “tumor growth (tumor volume)” value ([9]; 1 mg/kg, IP, over 28 days) was “reduce tumor growth”, the “tumor growth (tumor volume)” value ([9]; 5 mg/kg, IP, over 28 days) was “reduce tumor growth” and the “tumor growth (tumor volume)” value [9, 13] was “reduce the tumor growth”.

For `Cc1ccccc1C(=O)Nc1nc(NC(=O)c2ccccc2C)n(-c2ccccc2)n1` [Compound F, 2-methyl-N-[5-[(2-methylbenzoyl)amino]-1-phenyl-1,2,4-triazol-3-yl]benzamide], the “Cyclin D1 expression” value ([1]; HCT-116, 2 μM) was “reduction of Cyclin D1 expression”, the “Cyclin D1 expression” value ([1]; TOV-112, 2 μM) was “reduction of Cyclin D1 expression” and the IC50 ([2]; TOV21G, TOV-21G, 72 hrs, read-out: Cell Viability: IC50) was 1160 nM. It also gave an IC50 [2, 10] of 1500 nM, an IC50 [3] of 1300 nM and an IC50 [4, 11] of 1300 nM. For the same molecule, the IC50 ([4]; HCT 116, 72 hrs, read-out: Cell Viability: IC50) was 2000 nM, the IC50 ([5]; TOV112D, TOV-112D, 72 hrs, read-out: Cell Viability: IC50) was 990 nM and the IC50 [5, 12] was 850 nM. For the same molecule, the IC50 [6] was greater than 2500 nM, the IC50 [7] was greater than 2500 nM and the IC50 ([8]; A549, 72 hrs, read-out: Cell Viability: IC50) was 7540 nM. The “tumor growth (tumor volume)” value ([9]; 10 mg/kg, over 28 days) was “substantially reduce tumor growth”, the “tumor growth (tumor volume)” value ([9]; 25 mg/kg, IP, over 28 days) was “most substantially reduced; also recorded: substantially reduce tumor growth” and the “tumor growth (tumor volume)” value [9, 13] was “reduce the tumor growth”.
